Entries after “also recorded” stand apart in the source; their conditions may differ.
Tests used:
[1] = stability of the powder on heating; assay type: physicochemical; settings: for stability of the powder when heated: 150° F., heated alone or mixed with each other
[2] = taken in 20 grams or less a day; cited from earlier work
solubility in water = assay type: physicochemical

For O=C[C@H](O)[C@H](O)[C@H](O)CO [anhydrous D-ribose], the “temperature to which the powder can be heated without losing its powdery form” value [1] is given as less than 120 ° F, the “stability of the powder when heated” value [1] is given as “unstable” and the toxicity [2] is given as “extremely low toxicity”.
For O=C(CO)[C@@H](O)[C@H](O)[C@H](O)CO [fructose, reference compound], the “stability of the powder when heated” value [1] was “remain powders”.
With OC[C@H]1O[C@@H](O[C@H]2[C@H](O)[C@@H](O)C(O)O[C@@H]2CO)[C@H](O)[C@@H](O)[C@H]1O (stereo partly drawn) [lactose, reference compound] the “stability of the powder when heated” value [1] was “remain powders”.
With O.O=C[C@H](O)[C@H](O)[C@H](O)CO [ribose monohydrate, D-ribose monohydrate] the “stability compared with the anhydrous powder” value ([1]; especially with water, sugars and some consumable monohydrates) was “far more stable”, the solubility in water (solubility in water; listed as monohydrate) was “very soluble in water” and the solubility in water (solubility in water; monohydrate) was “highly soluble in water; also recorded: extreme solubility; also recorded: highest possible solubility in water”.
For OC[C@H]1O[C@@](CO)(O[C@H]2O[C@H](CO)[C@@H](O)[C@H](O)[C@H]2O)[C@@H](O)[C@@H]1O [sucrose, reference compound], the “stability of the powder when heated” value [1] was “remain powders”.

Source: patent publication US20060029644A1, “In vitro biochemical reactions with free anhydrous D-ribose” (priority 2004, published 2006)
